Experimental data from ChEMBL document CHEMBL4387701, “H2depda: An acyclic adjuvant potentiates meropenem activity in vitro against metallo-β-lactamase-producing enterobacterales” (Eur J Med Chem, 2019).
Values after ≈ are worked out from the molar mass of the structure shown. Active and inactive are the calls of the source. The rule behind the calls is not given here.

Tests used:
Escherichia coli [1] = test: Inhibition of NDM1 in Escherichia coli isolate 8 assessed as potentiation of meropenem-induced antibacterial activity by measuring meropenem MIC after 24 hrs by broth microdilution assay (reference value: 320 ug/ml)
Citrobacter freundii = test: Inhibition of NDM1 in Citrobacter freundii clinical isolate 7 assessed as potentiation of meropenem-induced antibacterial activity by measuring meropenem MIC after 24 hrs by broth microdilution assay
Enterobacter cloacae [2] = test: Inhibition of NDM1 in Enterobacter cloacae isolate 6 assessed as potentiation of meropenem-induced antibacterial activity by measuring meropenem MIC after 24 hrs by broth microdilution assay (reference value: 320 ug/ml)
Enterobacter cloacae [3] = test: Inhibition of NDM1 in Enterobacter cloacae isolate 4 assessed as potentiation of meropenem-induced antibacterial activity by measuring meropenem MIC after 24 hrs by broth microdilution assay (reference value: 640 ug/ml)
Escherichia coli [4] = test: Inhibition of NDM-7 in Escherichia coli isolate 2 assessed as potentiation of meropenem-induced antibacterial activity by measuring meropenem MIC after 24 hrs by broth microdilution assay (reference value: 640 ug/ml)
[5] = biological target: T1, Metallo-beta-lactamase NDM-4 (Escherichia coli) (UniProt H6WZS9); test: Inhibition of NDM4 in Escherichia coli isolate 3 assessed as potentiation of meropenem-induced antibacterial activity by measuring meropenem MIC after 24 hrs by broth microdilution assay (reference value: 1280 ug/ml)
T1 sequence (whole entry): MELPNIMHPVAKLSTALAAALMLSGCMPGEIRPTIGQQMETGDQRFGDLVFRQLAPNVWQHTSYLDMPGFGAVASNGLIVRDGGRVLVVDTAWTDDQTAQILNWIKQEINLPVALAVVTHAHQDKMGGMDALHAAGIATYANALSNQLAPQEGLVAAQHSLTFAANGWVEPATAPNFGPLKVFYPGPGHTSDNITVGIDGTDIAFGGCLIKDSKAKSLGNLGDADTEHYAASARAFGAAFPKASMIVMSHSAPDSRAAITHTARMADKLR

[6] = biological target: T1, Metallo-beta-lactamase NDM-4 (Escherichia coli); test: Inhibition of NDM4 in Escherichia coli ATCC 25922 assessed as potentiation of meropenem-induced antibacterial activity by measuring diameter of inhibition zone measured after 18 hrs by agar disk diffusion method
[7] = test system: Escherichia coli ATCC 25922; test: Inhibition of IMP-4 in Escherichia coli ATCC 25922 assessed as potentiation of meropenem-induced antibacterial activity by measuring zone of inhibition by agar disk diffusion method
Escherichia coli [8] = test: Inhibition of NDM1 in Escherichia coli isolate 9 assessed as potentiation of meropenem-induced antibacterial activity by measuring meropenem MIC after 24 hrs by broth microdilution assay
Klebsiella pneumoniae [9] = test: Inhibition of IMP4 in Klebsiella pneumoniae isolate 10 assessed as potentiation of meropenem-induced antibacterial activity by measuring meropenem MIC after 24 hrs by broth microdilution method (reference value: 64 ug/ml)
Klebsiella pneumoniae [10] = test: Inhibition of IMP4 in Klebsiella pneumoniae isolate 13 assessed as potentiation of meropenem-induced antibacterial activity by measuring meropenem MIC after 24 hrs by broth microdilution method (reference value: 320 ug/ml)
Enterobacter cloacae [11] = test: Inhibition of IMP4 in Enterobacter cloacae isolate 15 assessed as potentiation of meropenem-induced antibacterial activity by measuring meropenem MIC after 24 hrs by broth microdilution method (reference value: 32 ug/ml)
Escherichia coli [12] = test: Inhibition of IMP4 in Escherichia coli isolate 18 assessed as potentiation of meropenem-induced antibacterial activity by measuring meropenem MIC after 24 hrs by broth microdilution method (reference value: 16 ug/ml)
Proteus mirabilis [13] = test: Inhibition of IMP4 in Proteus mirabilis isolate 19 assessed as potentiation of meropenem-induced antibacterial activity by measuring meropenem MIC after 24 hrs by broth microdilution method (reference value: 320 ug/ml)
[14] = biological target: T1, Metallo-beta-lactamase NDM-4 (Escherichia coli); test: (§1) Inhibition of NDM4 in Escherichia coli isolate 3 assessed as potentiation of meropenem-induced bactericidal activity by measuring bacterial killing in early exponential phase at 64 ug/ml incubated for 24 hrs followed by replating on agar plates for 16 to 18 hrs and measured up to 24 hrs by time kill assay; conditions: TDE = time-dependent effect
[15] = biological target: T1, Metallo-beta-lactamase NDM-4 (Escherichia coli); test: as §1, with “late” for “early”; conditions: TDE = time-dependent effect
[16] = biological target: T1, Metallo-beta-lactamase NDM-4 (Escherichia coli); test: Inhibition of NDM4 in Escherichia coli isolate 3 assessed as potentiation of meropenem-induced bactericidal activity at 4 times MIC incubated for 24 hrs followed by replating on agar plates for 16 to 18 hrs and measured up to 24 hrs by time kill assay
[17] = Hemolytic activity in sheep RBC at 1000 ug/ml measured after 1 hr relative to control; format: ADME, cell-based, Ovis aries, Erythrocyte; conditions: sheep red blood cells (erythrocytes), read-out: Activity
[18] = Cytotoxicity against human HeLa cells assessed as inhibition of growth at 1000 ug/mL after 24 hrs by CCK8 assay relative to control; format: cell-based; conditions: read-out: GI
[19] = Inhibition of Stenotrophomonas maltophilia NDM1 expressed in Escherichia coli BL21 (DE3) expressing measured after 15 minutes at interval of 60 secs
[20] = biological target: T1, Metallo-beta-lactamase NDM-4 (Escherichia coli); test: Inhibition of Escherichia coli NDM4 assessed as potentiation of meropenem-induced antibacterial activity by measuring reduction in bacterial growth at 64 ug/mL after 24 hrs by broth microdilution method relative to control
[21] = biological target: T1, Metallo-beta-lactamase NDM-4 (Escherichia coli); test: Inhibition of Escherichia coli NDM4 assessed as potentiation of meropenem-induced antibacterial activity by measuring bacterial growth rate at 64 ug/mL after 24 hrs in presence of ZnCl2 by broth microdilution method relative to control
[22] = biological target: T1, Metallo-beta-lactamase NDM-4 (Escherichia coli); test: Inhibition of Escherichia coli isolate 3 NDM4 assessed as potentiation of meropenem-induced antibacterial activity by measuring reduction in meropenem MIC after 24 hrs by broth microdilution method relative to meropenem alone
Escherichia coli [23] = test: Effect on growth of Escherichia coli isolate 1 after 24 hrs by broth microdilution assay; format: organism-based
Escherichia coli [24] = test: Effect on growth of Escherichia coli isolate 2 after 24 hrs by broth microdilution assay; format: organism-based
Enterobacter cloacae [25] = test: Effect on growth of Enterobacter cloacae isolate 4 after 24 hrs by broth microdilution assay; format: organism-based
Enterobacter cloacae [26] = test: Effect on growth of Enterobacter cloacae isolate 5 after 24 hrs by broth microdilution assay; format: organism-based
Enterobacter cloacae [27] = test: Effect on growth of Enterobacter cloacae isolate 6 after 24 hrs by broth microdilution assay; format: organism-based
Escherichia coli [28] = test: Effect on growth of Escherichia coli isolate 8 after 24 hrs by broth microdilution assay; format: organism-based
Klebsiella pneumoniae [29] = test: Effect on growth of Klebsiella pneumoniae isolate 10 after 24 hrs by broth microdilution method; format: organism-based
Escherichia coli [30] = test: Effect on growth of Escherichia coli isolate 11 after 24 hrs by broth microdilution method; format: organism-based
Klebsiella pneumoniae [31] = test: Effect on growth of Klebsiella pneumoniae isolate 12 after 24 hrs by broth microdilution method; format: organism-based
Escherichia coli [32] = test: Effect on growth of Escherichia coli isolate 14 after 24 hrs by broth microdilution method; format: organism-based
Klebsiella pneumoniae [33] = test: Effect on growth of Klebsiella pneumoniae isolate 17 after 24 hrs by broth microdilution method; format: organism-based
Proteus mirabilis [34] = test: Effect on growth of Proteus mirabilis isolate 19 after 24 hrs by broth microdilution method; format: organism-based

| SMILES | MIC (Escherichia coli [1]) | MIC (Citrobacter freundii) | MIC (Enterobacter cloacae [2]) | MIC (Enterobacter cloacae [3]) | MIC (Escherichia coli [4]) | MIC [5] | inhibition zone (IZ) [6] | inhibition zone (IZ) [7] | MIC (Escherichia coli [8]) | MIC (Klebsiella pneumoniae [9]) | MIC (Klebsiella pneumoniae [10]) | MIC (Enterobacter cloacae [11]) | MIC (Escherichia coli [12]) | MIC (Proteus mirabilis [13]) | inhibition [14] | inhibition [15] | inhibition [16] | hemolysis at 1 h, 1000 ug/ml [17] | inhibition at 24 h, 1000 ug/mL [18] | IC50 [19] | further results |
| --- | --- | --- | --- | --- | --- | --- | --- | --- | --- | --- | --- | --- | --- | --- | --- | --- | --- | --- | --- | --- | --- |
| COc1ccc(CN(CCN(Cc2ccc(OC)cc2)Cc2cccc(C(=O)O)n2)Cc2cccc(C(=O)O)n2)cc1 | 0.0625 µg/mL | 1 µg/mL | 2 µg/mL | 0.0625 µg/mL | 0.0625 µg/mL | < 0.0312 µg/mL | 2 to 5 mm | 15.9 mm | 0.125 µg/mL | 1 µg/mL | 4 µg/mL | 0.5 µg/mL | 2 µg/mL | 2 µg/mL | Tde | Tde | Active | 2.94% | < 50% | 40 nM | inhibition [20]: Active; inhibition [21]: 81%; fold change (FC) [22]: 41000; MIC (Escherichia coli [23]): 32 µg/mL (≈ 56.1 µM); MIC (Escherichia coli [24]): 64 µg/mL (≈ 112 µM); MIC (Enterobacter cloacae [25]): 64 µg/mL (≈ 112 µM); MIC (Enterobacter cloacae [26]): 64 µg/mL (≈ 112 µM); MIC (Enterobacter cloacae [27]): 32 µg/mL (≈ 56.1 µM); MIC (Escherichia coli [28]): 64 µg/mL (≈ 112 µM); MIC (Klebsiella pneumoniae [29]): 64 µg/mL (≈ 112 µM); MIC (Escherichia coli [30]): 64 µg/mL (≈ 112 µM); MIC (Klebsiella pneumoniae [31]): 32 µg/mL (≈ 56.1 µM); MIC (Escherichia coli [32]): 32 µg/mL (≈ 56.1 µM); MIC (Klebsiella pneumoniae [33]): 32 µg/mL (≈ 56.1 µM); MIC (Proteus mirabilis [34]): 32 µg/mL (≈ 56.1 µM) |
| O=C(O)c1cccc(CNCCNCc2cccc(C(=O)O)n2)n1 | 0.0625 µg/mL | 1 µg/mL | 2 µg/mL | 0.25 µg/mL | 0.125 µg/mL | < 0.0312 µg/mL | 2 to 5 mm | 18.3 mm | 0.25 µg/mL | 0.5 µg/mL | 4 µg/mL | 0.5 µg/mL | 2 µg/mL | 2 µg/mL | Tde | Tde | Active | 0.1% | < 50% | 170 nM | inhibition [20]: Active; inhibition [21]: 81%; fold change (FC) [22]: 41000; MIC (Escherichia coli [23]): 32 µg/mL (≈ 96.9 µM); MIC (Escherichia coli [24]): 32 µg/mL (≈ 96.9 µM); MIC (Enterobacter cloacae [25]): 64 µg/mL (≈ 194 µM); MIC (Enterobacter cloacae [26]): 64 µg/mL (≈ 194 µM); MIC (Enterobacter cloacae [27]): 32 µg/mL (≈ 96.9 µM); MIC (Escherichia coli [28]): 64 µg/mL (≈ 194 µM); MIC (Klebsiella pneumoniae [29]): 64 µg/mL (≈ 194 µM); MIC (Escherichia coli [30]): 64 µg/mL (≈ 194 µM); MIC (Klebsiella pneumoniae [31]): 64 µg/mL (≈ 194 µM); MIC (Escherichia coli [32]): 32 µg/mL (≈ 96.9 µM); MIC (Klebsiella pneumoniae [33]): 32 µg/mL (≈ 96.9 µM); MIC (Proteus mirabilis [34]): 32 µg/mL (≈ 96.9 µM) |
